In ChEMBL document CHEMBL5260831, “Recent advance in oxazole-based medicinal chemistry” (Eur J Med Chem, 2018):
Converted amounts (≈) assume the structure as drawn.

Columns and labels:
Leishmania major = assay: Leishmanicidal activity against Leishmania major JISH118 promastigote infected in human THP-1 macrophage cells assessed as reduction in […]; format: functional, organism-based; conditions: JISH118, THP-1
MCF7 [1] = assay: Antiproliferative activity in human MCF7 cells assessed as cell growth inhibition; format: functional, cell-based
HepG2 [2] = assay: Antiproliferative activity in human HepG2 cells assessed as cell growth inhibition; format: functional, cell-based
HepG2 [3] = assay: Antiproliferative activity in human HepG2 cells assessed as cell growth inhibition measured after 72 hrs by MTT assay; format: functional, cell-based; conditions: HepG2, 72 h
[4] = test system: Mycobacterium tuberculosis; assay: Antimycobacterial activity against Mycobacterium tuberculosis H37Rv ATCC27294 assessed as inhibition of bacterial growth by agar dilution assay; format: functional
Staphylococcus aureus [5] = assay: Antibiofilm activity against methicillin-sensitive Staphylococcus aureus ATCC 35556 assessed as inhibition of biofilm formation; format: functional
Rattus norvegicus [6] = assay: Anti-inflammatory activity against Carrageenan-induced paw edema in albino rat ulcerogenic activity at 20 mg/kg, po relative to control; format: functional
P388 = assay: Antiproliferative activity gainst mouse P388 cells assessed as cell growth inhibition; format: functional, cell-based
A549 [7] = assay: Antiproliferative activity in human A549 cells assessed as cell growth inhibition; format: functional, cell-based
HeLa = assay: Antiproliferative activity in human HeLa cells assessed as cell growth inhibition; format: functional, cell-based
Escherichia coli = assay: Antibacterial activity against Escherichia coli assessed as bacterial growth inhibition by microdilution assay; format: functional
Staphylococcus aureus [8] = assay: Antibacterial activity against Staphylococcus aureus assessed as bacterial growth inhibition by disc diffusion assay; format: functional
Rattus norvegicus [9] = assay: Anti-inflammatory activity against Carrageenan-induced paw edema in rat ulcerogenic activity relative to control; format: functional
Rattus norvegicus [10] = assay: Anti-inflammatory activity against Carrageenan-induced paw edema in Wistar albino rat ulcerogenic activity relative to control; format: functional
[11] = target: Cannabinoid receptor 1 (Homo sapiens) (UniProt P21554); assay: Binding affinity to CB1 receptor (unknown origin); conditions: filed as agonist
Alpha-glucosidase [12] = target: T1, Alpha-glucosidase (Saccharomyces cerevisiae S288c, UniProt P53341+P38158+P07265); assay: Inhibition of yeast alpha-glucosidase using p-nitrophenyl-alpha-D-glucopyranoside as substrate by absorbance based analysis; format: protein assay
Alpha-glucosidase [13] = target: T1, Alpha-glucosidase; assay: Inhibition of yeast alpha-glucosidase using p-nitrophenyl-alpha-D-glucopyranoside as substrate; format: protein assay
A549 [14] = assay: Antiproliferative activity in human A549 cells assessed as cell growth inhibition measured after 72 hrs by MTT assay; format: functional, cell-based; conditions: A549, 72 h
[15] = target: Protein kinase C beta type (Homo sapiens, UniProt P05771); assay: Inhibition of PKCB (unknown origin)
[16] = test system: Mycolicibacterium smegmatis; assay: Antibacterial activity against Mycobacterium smegmatis mc2155ATCC-700084 assessed as bacterial growth inhibition measured after 18 hrs by microplate reader based analysis; format: functional
Bacillus cereus = assay: Antibacterial activity against Bacillus cereus MTCC 430 assessed as microbial growth inhibition measured after 24 hrs by paper disc diffusion technique; format: functional
Pseudomonas aeruginosa = assay: Antibacterial activity against Pseudomonas aeruginosa MTCC 741 assessed as microbial growth inhibition measured after 24 hrs by paper disc diffusion technique; format: functional
A549 [17] = assay: Antiproliferative activity in human A549 cells assessed as cell growth inhibition measured after 72 hrs by SRB assay; format: functional, cell-based; conditions: A549, 72 h
A549 [18] = assay: Antiproliferative activity in paclitaxel-resistant human A549 cells assessed as cell growth inhibition measured after 72 hrs by SRB assay; format: functional, cell-based; conditions: A549, 72 h
HCT-116 = assay: Antiproliferative activity in human HCT-116 cells assessed as cell growth inhibition measured after 72 hrs by SRB assay; format: functional, cell-based; conditions: HCT-116, 72 h
MDA-MB-231 = assay: Antiproliferative activity in human MDA-MB-231 cells assessed as cell growth inhibition measured after 72 hrs by SRB assay; format: functional, cell-based; conditions: MDA-MB-231, 72 h
SK-HEP1 = assay: Antiproliferative activity in human SK-HEP1 cells assessed as cell growth inhibition measured after 72 hrs by SRB assay; format: functional, cell-based; conditions: SK-HEP1, 72 h
[19] = Antiproliferative activity in human SNU-601 cells assessed as cell growth inhibition measured after 72 hrs by SRB assay; format: functional, cell-based; conditions: SNU-601, 72 h
MCF7 [20] = assay: Antiproliferative activity in human MCF7 cells assessed as cell growth inhibition measured after 48 hrs by MTT assay; format: functional, cell-based; conditions: MCF7, 48 h
A549 [21] = assay: Antiproliferative activity in human A549 cells assessed as cell growth inhibition measured after 48 hrs by MTT assay; format: functional, cell-based; conditions: A549, 48 h

Chain of Protein kinase C beta type (P05771 whole entry): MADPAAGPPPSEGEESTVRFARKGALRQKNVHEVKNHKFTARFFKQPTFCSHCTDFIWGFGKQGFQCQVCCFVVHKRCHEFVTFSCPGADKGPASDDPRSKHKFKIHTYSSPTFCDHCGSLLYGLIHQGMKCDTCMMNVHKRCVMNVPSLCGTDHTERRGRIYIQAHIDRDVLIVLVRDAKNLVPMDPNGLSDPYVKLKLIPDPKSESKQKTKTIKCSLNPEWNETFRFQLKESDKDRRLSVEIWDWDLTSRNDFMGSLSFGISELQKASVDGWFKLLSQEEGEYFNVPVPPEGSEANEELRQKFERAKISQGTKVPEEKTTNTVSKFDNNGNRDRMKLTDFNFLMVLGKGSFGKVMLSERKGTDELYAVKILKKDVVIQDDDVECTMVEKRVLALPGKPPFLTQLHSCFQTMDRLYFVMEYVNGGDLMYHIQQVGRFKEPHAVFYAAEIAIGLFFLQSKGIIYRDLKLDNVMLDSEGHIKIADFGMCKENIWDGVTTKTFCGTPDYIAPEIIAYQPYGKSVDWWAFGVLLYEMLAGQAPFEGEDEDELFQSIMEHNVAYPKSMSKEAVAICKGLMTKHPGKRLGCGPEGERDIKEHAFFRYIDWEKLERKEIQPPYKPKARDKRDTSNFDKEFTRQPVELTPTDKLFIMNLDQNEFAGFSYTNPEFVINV
Chain of Cannabinoid receptor 1 (Homo sapiens) (P21554 whole entry): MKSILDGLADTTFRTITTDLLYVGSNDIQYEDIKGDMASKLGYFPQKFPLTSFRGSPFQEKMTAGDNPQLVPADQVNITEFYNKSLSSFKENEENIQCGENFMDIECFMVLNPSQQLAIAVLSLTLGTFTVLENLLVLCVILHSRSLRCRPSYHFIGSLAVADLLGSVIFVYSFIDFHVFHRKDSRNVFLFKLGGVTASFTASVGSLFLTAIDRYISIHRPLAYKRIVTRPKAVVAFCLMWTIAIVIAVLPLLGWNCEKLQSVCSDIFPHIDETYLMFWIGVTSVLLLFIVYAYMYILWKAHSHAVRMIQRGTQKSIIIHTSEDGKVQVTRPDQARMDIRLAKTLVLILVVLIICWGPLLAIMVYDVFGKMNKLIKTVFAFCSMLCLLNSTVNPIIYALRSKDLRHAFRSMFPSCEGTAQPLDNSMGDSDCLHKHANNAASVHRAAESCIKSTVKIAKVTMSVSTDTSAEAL

SMILES: O=C(NNC(=S)c1ccc(C(F)(F)F)cc1)c1ccc(-c2nnc(-c3ccc4ncccc4c3)o2)cc1
- IC50 (Leishmania major): 0.1 µM

SMILES: CC(=O)Oc1ccccc1C1OC(c2ccncc2)=NN1C(C)=O (stereo unspecified)
- IC50 (MCF7 [1]): 50 µM
- IC50 (HepG2 [2]): 50 µM

SMILES: CC(=O)Oc1ccc(-c2nc(-c3ccccc3)co2)cc1
- IC50 (HepG2 [3]): 16.6 µM

SMILES: COc1ccc(-c2cc(-c3nnc(C)o3)nn2-c2ccc(NC(=O)c3ccccc3)cc2)cc1
- MIC [4]: > 50 µg/mL

SMILES: Cn1c(-c2nnc(-c3cc(Br)c(Br)[nH]3)o2)cc(Br)c1Br
- MBIC (Staphylococcus aureus [5]): 0.78 µg/mL

SMILES: O=C(CCN1CCN(c2ccc([N+](=O)[O-])cc2)CC1)Nc1ccc2oc(Cc3ccc(Cl)cc3)nc2c1
- inhibition in vivo at 20 mg/kg (Rattus norvegicus [6]): 81.7%

SMILES: CCC[C@@H]1NC(=O)C2C[C@H](C)CN2C(=O)[C@@H](NC=O)CNC(=O)[C@H](CSSC[C@@H]2NC(=O)c3coc(n3)[C@H](C)NC(=O)C(=O)[C@H](CCC)NC(=O)C3C[C@H](C)CN3C(=O)[C@@H](NC=O)CNC2=O)NC(=O)c2coc(n2)[C@H](C)NC(=O)C1=O (stereo partly specified)
- IC50 (P388): 0.83 µM

SMILES: CN[C@H](CC(C)C)C(=O)N[C@H]1C(=O)N[C@@H](CC(N)=O)C(=O)N[C@H]2C(=O)N[C@H]3C(=O)N[C@H](C(=O)N[C@H](C(=O)O)c4cc(O)cc(O)c4-c4cc3ccc4O)[C@H](O)c3ccc(c(Cl)c3)Oc3cc2cc(c3O[C@@H]2O[C@H](CO)[C@@H](O)[C@H](O)[C@H]2O[C@H]2C[C@](C)(N)[C@H](O)[C@H](C)O2)Oc2ccc(cc2Cl)[C@H]1O [VANCOMYCIN]
- MBIC (Staphylococcus aureus [5]): 3.125 µg/mL

SMILES: Cc1ncc(-c2cnc3ccccc3c2)o1
- IC50 (MCF7 [1]): 4.6 µM
- IC50 (A549 [7]): 4.6 µM
- IC50 (HeLa): 4.6 µM

SMILES: COc1ccc(-c2nnc(-c3cc(Br)c(Br)n3C)o2)cc1
- MBIC (Staphylococcus aureus [5]): 0.78 µg/mL

SMILES: COc1ccc(-c2nnc(SCCSc3nnc(-c4c[nH]c5ccccc45)n3N)o2)cc1
- MIC (Escherichia coli): 2 µg/mL
- MIC (Staphylococcus aureus [8]): 2 µg/mL (≈ 4.3 µM)

SMILES: COc1cc(-c2nnc(SCC(=O)Nc3ccc(/C(C)=N/O)cc3)o2)cc(OC)c1OC
- inhibition (INH) (Rattus norvegicus [9]): 96.67%

SMILES: Clc1ccccc1-c1nnc(Cn2c(CN3CCOCC3)nc3ccccc32)o1
- inhibition (INH) (Rattus norvegicus [10]): 74.17%

SMILES: Cc1nnc(-c2cc(-c3ccc(Cl)cc3)n(-c3ccc(NC(=O)c4ccccc4Cl)cc3)n2)o1
- MIC [4]: 1.56 µg/mL (≈ 3.18 µM)

SMILES: c1ccc(Cc2noc(-c3cn(CCN4CCCC4)c4ccccc34)n2)cc1
- pKb [11]: 7.2

SMILES: Cn1c(-c2nnc(-c3ccc(Cl)cc3Cl)o2)cc(Br)c1Br
- MBIC (Staphylococcus aureus [5]): 0.39 µg/mL

SMILES: Cc1ncc(-c2ccc3ccccc3c2)o1
- IC50 (MCF7 [1]): 4.6 µM
- IC50 (A549 [7]): 4.6 µM
- IC50 (HeLa): 4.6 µM

SMILES: O=[N+]([O-])c1ccc2cc(-c3nnc(-c4cccc(O)c4O)o3)oc2c1
- IC50 (Alpha-glucosidase [12]): 12.75 µM
- IC50 (Alpha-glucosidase [13]): 2 µM

SMILES: CO[C@@H]1[C@H](N(C)c2ncc(-c3ccccc3)o2)C[C@H]2C[C@]1(C)n1c3ccccc3c3c4c(c5c6ccccc6n2c5c31)C(=O)NC4
- IC50 (A549 [14]): 0.75 µM
- IC50 [15]: 0.5 µM

SMILES: C/C=C(C)/C=C(\C)[C@@H](O)[C@H](C)[C@@H](O)[C@H](O)[C@@H]1C/C=C\C=C\[C@@H](O)C[C@H](O)[C@@H](C)c2nc(cs2)/C=C(\CCCCCC)C(=O)O1
- MIC [16]: 16 µg/mL (≈ 25.3 µM)

SMILES: O=[N+]([O-])c1ccccc1-c1nc(-c2ccccc2)co1
- IC50 (HepG2 [3]): 56.5 µM

SMILES: Brc1ccccc1-c1nc(-c2ccccc2)co1
- IC50 (HepG2 [3]): 16.9 µM

SMILES: Cn1c(-c2nnc(-c3ccc(Cl)cc3)o2)cc(Br)c1Br
- MBIC (Staphylococcus aureus [5]): 0.78 µg/mL

SMILES: C/C=C(C)\C=C(/C)[C@@H](O)[C@H](C)[C@@H](O)[C@@H]1OC(=O)/C(CCCCCC)=C/c2coc(n2)[C@H](C)[C@@H](O)C[C@H](O)/C=C/C=C\C[C@@H]1O
- MIC [16]: 64 µg/mL (≈ 104 µM)

SMILES: O=c1cc(Nc2ccc(-c3cc(-c4ccc(Cl)cc4Cl)on3)cc2)c2ccccc2o1
- MIC (Bacillus cereus): 12.5 µg/mL (≈ 27.8 µM)
- MIC (Pseudomonas aeruginosa): 12.5 µg/mL (≈ 27.8 µM)

SMILES: CO[C@@H]1[C@H](N(C)c2ncc(-c3c[nH]c4ccccc34)o2)C[C@H]2C[C@]1(C)n1c3ccccc3c3c4c(c5c6ccccc6n2c5c31)C(=O)NC4
- IC50 (A549 [14]): 0.45 µM
- IC50 [15]: 0.5 µM

SMILES: Nc1ccc(-c2nnc(SCCSc3nnc(-c4c[nH]c5ccccc45)n3N)o2)cc1
- MIC (Escherichia coli): 2 µg/mL
- MIC (Staphylococcus aureus [8]): 2 µg/mL (≈ 4.44 µM)

SMILES: C/C=C(C)/C=C(\C)[C@@H](O)[C@H](C)[C@@H](O)[C@@H]1OC(=O)/C(CCCCCC)=C/c2coc(n2)[C@H](C)[C@@H](O)C[C@H](O)/C=C/C=C\C[C@@H]1O
- MIC [16]: 64 µg/mL (≈ 104 µM)

SMILES: O=[N+]([O-])c1ccc2cc(-c3nnc(-c4ccccc4F)o3)oc2c1
- IC50 (Alpha-glucosidase [12]): 12.75 µM
- IC50 (Alpha-glucosidase [13]): 2 µM

SMILES: COC(CC1OC(=O)CC(O)C/C=C/C(=O)C(C)C(OC)c2coc(n2)-c2coc(n2)-c2coc(n2)/C=C\CCC1C)C(C)CCC(=O)C(C)C(C/C=C/N(C)C=O)OC (stereo unspecified)
- IC50 (A549 [17]): 0.024 µM
- IC50 (A549 [18]): 0.022 µM
- IC50 (HCT-116): 0.073 µM
- IC50 (MDA-MB-231): 0.04 µM
- IC50 (SK-HEP1): 0.08 µM
- IC50 [19]: 0.107 µM

SMILES: CC1=NN(c2ccccc2)C(=O)/C1=N/Nc1cccc(-c2nc3ccccc3o2)c1
- IC50 (MCF7 [20]): 17 µM
- IC50 (A549 [21]): 15.5 µM

SMILES: Cc1nnc(-c2cc(-c3ccc(Cl)cc3)n(-c3ccc(NC(=O)c4ccccc4)cc3)n2)o1
- MIC [4]: 3.13 µg/mL (≈ 6.87 µM)

SMILES: Cc1ncc(-c2cccnc2)o1
- IC50 (MCF7 [1]): 4.6 µM
- IC50 (A549 [7]): 4.6 µM
- IC50 (HeLa): 4.6 µM

SMILES: COc1ccc(-c2cc(-c3nnc(C)o3)nn2-c2ccc(NC(=O)c3ccc(F)cc3)cc2)cc1
- MIC [4]: > 50 µg/mL

SMILES: O=[N+]([O-])c1ccc2cc(-c3nnc(-c4ccc(O)cc4O)o3)oc2c1
- IC50 (Alpha-glucosidase [12]): 12.75 µM
- IC50 (Alpha-glucosidase [13]): 2 µM
